Reference: patent US20050043515A1, “Tobacco-specific nitrosamine detection assays and reagents” (priority 2003, published 2005)
pIC50: −log10 of the molar value. Read-outs that look alike come from different tables or passages of the source.

Experiments:
[1] = system: monoclonal antibody 245J15; experiment: Competitive ELISA for total TSNAs using monoclonal antibody 245J15; type: binding, mice
Experimental: (§1) Microtiter plates (Nunc, Maxisorp) were coated by adding 100 μl per well of goat anti mouse IgG Fc specific (Jackson Immunoresearch, West Grove, Pa.) at 2.5 micrograms per milliliter (μg/ml) in phosphate buffered saline (Sigma Chemical Co.) and allowing the solution to sit overnight. The next day, contents were discarded and unreacted sites on the plastic wells were blocked with 300 μl per well of PBT (1% Bovine Serum Albumen (Sigma Chemical Co.), 0.05% Tween 20 (Sigma Chemical Co.) in PBS) for one hour. Contents were again discarded and 100 μl was added per well of a 1/10,000 dilution of hybridoma culture supernatant of monoclonal antibody 245B5. Wells were then incubated one hour at room temperature. Contents of the wells were again discarded and wells washed three times with PBS with 0.05% Tween (PT). Aliquots containing 50 μl of test compounds diluted in PBT were added to the wells in duplicate, followed in less than five minutes by 50 μl of NNK conjugated to horseradish peroxidase (5 μg of horseradish peroxidase/ml). Wells were incubated for one hour at room temperature, after which they were washed six times with PT and excess liquid removed by tapping. A 100 μl aliquot of a peroxide/3,3′,5,5′-tetramethylbenzidine substrate/chromagen (Catalog # TMBUS, Moss Corporation, Pasadena, Md.) was added. Color was read at 650 nm after fifteen minutes in a microplate reader (SpectraMax Plus, Molecular Devices, Sunnyvale, Calif.). The presence of a TSNA reactive with monoclonal antibody 245B5 caused a decrease in the strength of the color signal.
A total TSNA assay was developed for monoclonal antibody 245J15.
Each analyte was obtained from the source identified in Example 3.
(§2) The affinity of monoclonal antibodies 245B5 and 245J15 to the N-nitroso group on compounds was evaluated using the immunoassay of Example 3 and the immunoassay of Example 4. Parent compounds lacking nitroso groups but having secondary amine groups were run in the immunoassays as previously described. Identical immunoassays were also conducted for compounds that were identical with the parent compounds except that for the addition of the nitroso group to the secondary amine in the compounds. NNN, NAT, and NAB are all examples of TSNAs. N-nitrosopyrollidine may be found in tobacco smoke, but is not a TSNA.

[2] = system: monoclonal antibody 245B5; experiment: Competitive ELISA for NNK using monoclonal antibody 245B5; type: binding, mice; details: for % Crossreactivity: NNK amount for 50% inhibition divided by test compound amount, x100
Experimental: as §1
TSNAs were purchased from Toronto Research Chemicals. […] The y-axis is B/Bo, which is the amount of color at 650 nm obtained in the presence of the compound divided by the amount of color obtained when no competing compound is present.
as §2

[3] = system: rabbit antisera raised against NNK oxime derivative conjugates; type: binding, New Zealand White Rabbits; details: one rabbit; for Crossreactivity at the 50% point: relative to NNK
Experimental: NNK oxime derivatives were prepared and conjugated to KLH and BSA as described in Example 1. The conjugates were diluted in complete Freund's adjuvant to prepare a 1:1 solution of conjugate:adjuvant. New Zealand White Rabbits (6 to 12 months of age) were immunized by injection with the suspension. Rabbits received two booster injections of the same conjugate/adjuvant at one month and two months after initial injection. At three months time, point test bleeds were tested against microtiter plates coated with oxime-derivatized NNK prepared and conjugated to ovalbumen using procedures described in Example 1.
All of these rabbits were used individually to produce competitive assays, as described in Example 3, with the exceptions that a 1:250,000 dilution of antisera in PBT was substituted for the supernatant and the microtiter plates were first coated with goat anti rabbit IgG (Catalog # 115-005-008, Jackson Immunoresearch, West Grove, Pa.) rather than goat anti mouse IgG. All other details were the same.

[4] = Antibody 245J15, NNK amount for 50% inhibition divided by test compound amount, x100
[5] = Antibody 245J15, read-out: 50% Inhibition at: M
[6] = Table 4, Antibody 245J15, parent compound vs N-nitroso derivative, read-out: 50% Inhibition at
[7] = 0.5 B/Bo, read-out: 50% Inhibition at: M
[8] = Table 3, parent compound vs N-nitroso derivative, read-out: 50% Inhibition at

| SMILES | 50% Inhibition at: ppm ([1]; Antibody 245J15) [ppm] | % Crossreactivity [1, 4] [%] | pIC50 [1, 5] | pIC50 [1, 6] | 50% Inhibition at: Ppm ([2]; 0.5 B/Bo) [Ppm] | pIC50 [2, 7] | pIC50 [2, 8] | further results |
| --- | --- | --- | --- | --- | --- | --- | --- | --- |
| O=C(O)C1CCCCN1 (racemic) [DL-Pipecolinic Acid] | 13630.2 | 0 | – | – | – | – | – | – |
| CN1CCCCC1CO (centres unmarked) [1-Methyl-2-piperidinemethanol] | 781.4 | 0.008 | 2.22 | – | – | – | – | – |
| CN1CCCC1CCO (centres unmarked) [1-Methyl-2-pyrrolidineethanol] | 1264.4 | 0.005 | 2.01 | – | – | – | – | – |
| CN1CCC(O)C1 (centres unmarked) [1-Methyl-3-pyrrolidinol] | 92.7 | 0.065 | 3.04 | – | – | – | – | – |
| O=C1CCCN1 [2-Pyrrolidinone] | 2594 | 0.002 | 1.52 | – | – | – | – | – |
| Cl.OC1CCCNC1 (centres unmarked) [3-Hydroxypiperidine hydrochloride] | 17492.7 | 0 | – | – | – | – | – | – |
| OC1CCNC1 (centres unmarked) [3-Pyrrolidinol] | 5373.9 | 0.001 | 1.21 | – | – | – | – | – |
| Cl.OC1CCNCC1 [4-Hydroxypiperidine hydrochloride] | 12282.5 | 0 | 1.05 | – | – | – | – | – |
| OC[C@H]1CCCN1 [(R)-(−)-2-Pyrrolidine-methanol] | 1898.1 | 0.003 | 1.72 | – | – | – | – | – |
| OC[C@@H]1CCCN1 [(S)-(+)-2-Pyrrolidine-methanol] | 996.7 | 0.006 | 2.00 | – | – | – | – | – |
| c1cncc([C@@H]2CCCCN2)c1 [Anabasine] | 214.9 | 0.028 | 2.89 | 2.89 | >200 | < 3.00 | < 3.00 | % Crossreactivity [2]: <0.0002% |
| C1=CCC(c2cccnc2)NC1 (centres unmarked) [Anatabine] | 8.3 | 0.7 | 4.28 | 4.28 | 311.06 | 2.72 | 2.72 | % Crossreactivity [2]: 0.0004% |
| CCCCNCCCC [Dibutylamine] | – | – | – | < 1.30 | – | – | < 1.30 | – |
| CN1CCCC[C@H]1c1cccnc1 [Methyl Anabasine] | 30.2 | 0.2 | 3.74 | – | 271.90 | 2.80 | – | % Crossreactivity [2]: 0.0005% |
| CCCCN(CCCC)N=O [N-Nitrosodibutylamine] | – | – | – | 2.00 | – | – | 1.80 | – |
| O=NN1CCCC1 [N-Nitrosopyrrolidine] | – | – | – | 2.30 | – | – | 2.52 | – |
| O=NN1CCCC[C@H]1c1cccnc1 [NAB, N-nitrosoanabasine] | 0.72 | 8.3 | 5.42 | 5.42 | 1.35 | 5.15 | 5.15 | Crossreactivity at the 50% point [3]: 1.6% |
| O=NN1CC=CC[C@H]1c1cccnc1 [NAT, N-nitrosoanatabine] | 0.13 | 46.3 | 6.17 | 6.17 | 0.35 | 5.74 | 5.74 | Crossreactivity at the 50% point [3]: 1.7% |
| CN(N=O)C(CCC=O)c1cccnc1 (centres unmarked) [NNA, 4-(methylnitrosamino)4-(3-pyridyl)butanal] | 0.56 | 10.8 | 5.57 | – | 18.00 | 4.06 | – | % Crossreactivity [2]: 0.0075% |
| CN(CCCC(O)c1cccnc1)N=O (centres unmarked) [NNAL, 4-(methylnitrosamino)-1-(3-pyridyl)-1-butanol] | 0.05 | 129.6 | 6.66 | – | 0.06923 | 6.48 | – | – |
| CN(CCCC(=O)c1cccnc1)N=O [NNK, 4-(methylnitrosamino)-1-(3-pyridyl)-1-butanone] | 0.06 | 100 | 6.54 | – | 0.00135 | 8.19 | – | sensitivity at the 50% inhibition point ([3]; 1:250,000 dilution of antisera): 0.1 μg NNK per ml; % Crossreactivity [2]: 100.00% |
| CN1CCCC1c1cccnc1 (centres unmarked) [Nicotine] | 80.9 | 0.074 | 3.30 | – | 16.88 | 4.00 | – | Crossreactivity at the 50% point [3]: 0.024%; % Crossreactivity ([1]; Antibody 245J15, NNK amount for 50% inhibition divided by test compound amount, x100, listed as Nicotine (Acros)): 0.034%; 50% Inhibition at: ppm ([1]; Antibody 245J15, listed as Nicotine (Acros)): 178.9 ppm; pIC50 ([1]; Antibody 245J15, listed as Nicotine (Acros), read-out: 50% Inhibition at: M): 2.96 |
| O=C(O)C1CCCNC1 (centres unmarked) [Nipecotic Acid] | 24193.5 | – | – | – | – | – | – | – |
| c1cncc([C@@H]2CCCN2)c1 [Nornicotine] | 223.1 | 0.027 | 2.82 | 2.82 | >200 | < 3.00 | < 3.00 | % Crossreactivity [2]: <0.0002% |
| C1CCNCC1 [Piperidine] | 1300.3 | 0.005 | 1.82 | – | – | – | – | – |
| c1ccncc1 [Pyridine] | – | – | – | – | – | – | – | 50% Inhibition at: ppm [1]: 946.9 ppm; % Crossreactivity [1]: 0.006%; pIC50 ([1]; read-out: 50% Inhibition at: M): 1.92 |
| C1CCNC1 [Pyrrolidine] | – | – | – | 1.70 | – | – | 1.70 | – |
